Laboratory results: US9546194B2, “Aminosteroids for the treatment of a PTP1B associated disease” (Ohr Pharmaceutical Inc., priority 2012, dated 2017)

Columns and labels:
[1] = Body weight change in ob/ob mouse; format: in vivo; settings: ob/ob mice; 5 or 10 mg/kg ip every 3 days, 4 doses; % change in body weight vs study day 0, up to 30 days
Procedure: (§1) To determine in vivo efficacy of the aminosteroid analogues an ob/ob (Lep^ob) mouse model was used. Ob/ob mice are extensively used for screening of antidiabetic and/or anti-obesity agents. Ob/ob mice were treated with either saline or 5 or 10 mg/kg aminosteroid analogue every 3 days for a total of 4 doses via ip injection. Body weight, glucose tolerance and fasting blood glucose levels were measured for each group during the study. Each group had at least an N of 4 animals. All reagents and lab animals are commercially available.
Starting at study day 0, body weight measurements were taken every day for each group for up to 30 days. Percent change in body weight was calculated as the fractional response of body weight on study day X over the original body weight on study day 0.

[2] = system: ob/ob (Lep^ob) mouse; test: Fasting blood glucose (FBG) in ob/ob mouse; format: in vivo; settings: ob/ob mice; 5 or 10 mg/kg ip every 3 days, 4 doses; study day 14 after overnight fast
Procedure: as §1
On study day 13, all animal groups were fasted overnight. On study day 14, 25 μL of whole blood was collected and analyzed for the glucose level (mg/dL) using a glucose analyzer.

[3] = target: T1, full length tyrosine phosphatase PTP1B (Homo sapiens, UniProt P18031); test: Inhibition of PTP1B (pNPP hydrolysis, absorbance at 405 nm); format: biochemical; settings: 5 μM aminosteroid analogue; pNPP substrate; read-out: PTP1B % Inhib. at (5 μM)
T1 construct: purchased
T1 sequence (P18031 1-435): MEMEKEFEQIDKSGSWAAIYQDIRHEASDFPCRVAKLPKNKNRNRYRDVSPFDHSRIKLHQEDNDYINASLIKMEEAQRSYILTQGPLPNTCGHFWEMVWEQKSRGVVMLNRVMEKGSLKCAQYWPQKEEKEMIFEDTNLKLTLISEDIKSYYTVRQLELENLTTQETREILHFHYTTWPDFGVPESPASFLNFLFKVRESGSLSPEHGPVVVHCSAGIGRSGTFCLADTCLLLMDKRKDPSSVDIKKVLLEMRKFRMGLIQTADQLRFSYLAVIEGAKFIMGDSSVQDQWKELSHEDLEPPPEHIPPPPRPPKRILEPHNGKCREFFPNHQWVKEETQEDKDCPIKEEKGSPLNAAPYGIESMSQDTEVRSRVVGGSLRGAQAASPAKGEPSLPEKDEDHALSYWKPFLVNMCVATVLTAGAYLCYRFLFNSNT
Procedure: (§2) The aminosteroid analogues were tested for inhibition against the commercially available full length tyrosine phosphatase PTP1B. The ability of each analogue to inhibit the activity of PTP1B was measured in the presence of 5 μM of the aminosteroid analogue. The assay uses para-nitro-phenyl phosphate (pNPP), a non-specific substrate to assess phosphatase activity. Phosphatase activity was based on the ability of PTP1B to catalyze the hydrolysis of pNPP to p-nitrophenol (pNP).

[4] = system: ob/ob (Lep^ob) mouse; test: Oral glucose tolerance test (OGTT) in ob/ob mouse; format: in vivo; settings: ob/ob mice; for change in vivo: Mus musculus, 336 h, 5 or 10 mg/kg ip every 3 days, 4 doses, OGTT study day 14, 1.5 g/kg oral glucose, 0-120 min, read-out: AbAUC % Change From Saline; for reduction in AbAUC compared to saline control (significance): OGTT study day 14, p<0.05
Procedure: as §1
On study day 14, an oral glucose tolerance test (OGTT) was performed to assess glucose tolerance. At time 0, an oral glucose challenge (1.5 g/kg) was administered by oral gavage. At time points 0, 15, 30, 60, 90, and 120 min post glucose load, 25 μl of whole blood was withdrawn from the tail vein of the animal and the glucose level was measured using a glucose analyzer. The glucose concentration vs time was plotted and the above baseline area under the curve (AbAUC) of the glucose excursion time curve was determined using trapezoidal rule analyses.

[5] = target: T2, full length TCPTP (Homo sapiens, UniProt P17706); test: Inhibition of TCPTP (pNPP hydrolysis, same manner as PTP1B assay); format: biochemical; settings: 200 μM inhibitor; pNPP substrate; read-out: TCPTP % Inhib. at (200 μM)
T2 construct: except full length TCPTP was used as the enzyme
T2 sequence (P17706 1-415): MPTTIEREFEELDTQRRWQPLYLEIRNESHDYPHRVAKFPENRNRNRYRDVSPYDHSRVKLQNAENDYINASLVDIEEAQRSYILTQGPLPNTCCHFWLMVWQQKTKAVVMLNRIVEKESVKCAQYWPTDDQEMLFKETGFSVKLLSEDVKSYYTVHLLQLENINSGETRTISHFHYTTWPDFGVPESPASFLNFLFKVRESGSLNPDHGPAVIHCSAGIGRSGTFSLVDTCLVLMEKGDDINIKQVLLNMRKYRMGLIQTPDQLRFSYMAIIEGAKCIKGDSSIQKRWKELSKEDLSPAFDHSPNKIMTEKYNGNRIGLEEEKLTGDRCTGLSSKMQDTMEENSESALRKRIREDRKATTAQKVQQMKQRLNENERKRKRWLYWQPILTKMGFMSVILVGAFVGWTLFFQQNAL
Procedure: as §2
The aminosteroid analogues were also tested for their ability to inhibit the tyrosine phosphatase TCPTP as an indication of their potential toxicity by the inhibition of the immune response. The TCPTP inhibition assay was done in the same manner as the PTP1B assay except full length TCPTP was used as the enzyme and the inhibitor was at a concentration of 200 μM. The results of the TCPTP inhibition assays are shown in Table 1, column 4 and show three compounds that inhibit TCPTP less than 50% even at a […] greater concentration.

SMILES | inhibition at 5 µM [3] | inhibition at 200 µM [5] | also measured
CC(C)[C@@H](CC[C@@H](C)[C@H]1CC[C@H]2[C@@H]3[C@H](O)C[C@H]4C[C@@H](NCCCNCCCCNCCCN)CC[C@]4(C)[C@H]3CC[C@]12C)OS(=O)(=O)O [MSI-1436, reference compound] | 54% |  | % BW Nader [1]: −52.6%; FBG % Change From Saline [2]: −51.3%; change in vivo [4]: -55.9%
CCNC(=O)N(CCCN(C)C)C(=O)C(C)[C@H]1CCC2C3CC[C@H]4CC(NCCNC)CC[C@]4(C)C3CC[C@@]21C (stereo partly drawn) [MSI-2500] | 0% |  | 
CCN(C(=O)NCCCN(C)C)C(=O)C(C)[C@H]1CCC2C3CC[C@H]4CC(NCCNC)CC[C@]4(C)C3CC[C@@]21C (stereo partly drawn) [MSI-2501] | 0% |  | 
CC(C)CCC[C@@H](C)[C@H]1CCC2C3C[C@@H](O)[C@H]4C[C@@H](NCCN)CC[C@]4(C)C3CC[C@@]21C (stereo partly drawn) [MSI-2502] | 0% |  | 
CC(C)CCC[C@@H](C)[C@H]1CCC2C3C[C@@H](O)[C@H]4C[C@H](NCCCN)CC[C@]4(C)C3CC[C@@]21C (stereo partly drawn) [MSI-2504] | 43% | 22% | 
CC(C)CCC[C@@H](C)[C@H]1CCC2C3C[C@@H](O)[C@H]4C[C@@H](NCCCN)CC[C@]4(C)C3CC[C@@]21C (stereo partly drawn) [MSI-2505] | 39% |  | 
CC(C)CCC[C@@H](C)[C@H]1CCC2C3C[C@@H](O)[C@H]4C[C@H](NCCCNCCCCN)CC[C@]4(C)C3CC[C@@]21C (stereo partly drawn) [MSI-2506] | 60% | 60% | 
COC(=O)CC[C@@H](C)[C@H]1CCC2C3C(CC[C@@]21C)[C@@]1(C)CC[C@@H](NCCN2CCCCC2)C[C@H]1C[C@H]3O (stereo partly drawn) [MSI-2507] | 94% | -11% | % BW Nader [1]: 1.4%; FBG % Change From Saline [2]: −9.4%; change in vivo [4]: -45.8%; reduction in AbAUC compared to saline control (significance) [4]: significant reduction
COC(=O)CC[C@@H](C)[C@H]1CCC2C3C(CC[C@@]21C)[C@@]1(C)CC[C@@H](NCCCCNCc2cccnc2)C[C@@H]1C[C@H]3O (stereo partly drawn) [MSI-2510] | 72% | 23% | % BW Nader [1]: 1.6%; FBG % Change From Saline [2]: 12.0%; change in vivo [4]: -32.9%; reduction in AbAUC compared to saline control (significance) [4]: significant reduction
CC(C)NCCNC1CC[C@]2(C)C3CC[C@@]4(C)C(CC[C@@H]4[C@H](C)CCC(=O)O)C3C[C@@H](O)[C@H]2C1 (stereo partly drawn) [MSI-2515] | 89% | 19% | 
CC(C)CCC[C@@H](C)[C@H]1CCC2C3C[C@@H](O)[C@H]4C[C@@H](NCCCNCCCCNCCCN)CC[C@]4(C)C3CC[C@@]21C (stereo partly drawn) [MSI-2516] | 56% | 25% | 
CC(C)CCC[C@@H](C)[C@H]1CCC2C3C[C@@H](O)[C@H]4C[C@H](NCCCNCCCCNCCCN)CC[C@]4(C)C3CC[C@@]21C (stereo partly drawn) [MSI-2517] | 51% | 11% | 
COC(=O)CC[C@@H](C)[C@H]1CCC2C3C(CC[C@@]21C)[C@@]1(C)CC[C@H](NCCN2CCCCC2)C[C@@H]1C[C@H]3O (stereo partly drawn) [MSI-2518] | 102% | 12% | 
COC(=O)CC[C@@H](C)[C@H]1CCC2C3C(CC[C@@]21C)[C@@]1(C)CCC(NCCNC(C)C)C[C@@H]1C[C@H]3O (stereo partly drawn) [MSI-2519] | 102% | 26% | 
COC(=O)CC[C@@H](C)[C@H]1CCC2C3CC[C@@H]4C[C@H](NCCNC(C)C)CC[C@]4(C)C3CC[C@@]21C (stereo partly drawn) [MSI-2521] | 103% | 67% | 
COC(=O)CC[C@@H](C)[C@H]1CCC2C3CC[C@@H]4C[C@@H](NCCNC(C)C)CC[C@]4(C)C3CC[C@@]21C (stereo partly drawn) [MSI-2522] | 104% | 50% | 
COC(=O)CC[C@@H](C)[C@H]1CCC2C3C[C@H](O)[C@@H]4C[C@H](NCCNC(C)C)CC[C@]4(C)C3CC[C@@]21C (stereo partly drawn) [MSI-2523] | 101% | 8% | 
COC(=O)CC[C@@H](C)[C@H]1CCC2C3C[C@H](O)[C@@H]4C[C@@H](NCCNC(C)C)CC[C@]4(C)C3CC[C@@]21C (stereo partly drawn) [MSI-2524] | 103% | 15% | 
COC(=O)CC[C@@H](C)[C@H]1CCC2C3CC[C@@H]4C[C@@H](NCCNC(C)C)CC[C@]4(C)C3C[C@H](O)[C@@]21C (stereo partly drawn) [MSI-2526] | 104% |  | 
COC(=O)CC[C@@H](C)[C@H]1CCC2C3C(CC[C@@]21C)[C@@]1(C)CCC(NCCNC(C)C)C[C@@H]1C[C@H]3NC(=O)OC (stereo partly drawn) [MSI-2528] | 75% | 2% | 
COC(=O)CC[C@@H](C)[C@H]1CCC2C3C(CC[C@@]21C)[C@@]1(C)CC[C@@H](NCCNC(C)C)C[C@@H]1C[C@H]3SC (stereo partly drawn) [MSI-2529] | 64% | 4% | 
COC(=O)CC[C@@H](C)[C@H]1CCC2C3C(CC[C@@]21C)[C@@]1(C)CCC(NCCNC(C)C)C[C@@H]1C[C@H]3S(C)(=O)=O (stereo partly drawn) [MSI-2530] | 46% | 1% | 
COC(=O)CC[C@@H](C)[C@H]1CCC2C3C(CC[C@@]21C)[C@@]1(C)CC[C@H](NCCNC(C)C)C[C@@H]1C[C@H]3S(C)(=O)=O (stereo partly drawn) [MSI-2531] | 48% | 1% | 
COC(=O)CC[C@@H](C)[C@H]1CCC2C3C(CC[C@@]21C)[C@@]1(C)CCC(NCCN(C)C)C[C@H]1C[C@H]3O (stereo partly drawn) [MSI-2533] |  | 5% | 
COC(=O)CC[C@@H](C)[C@H]1CCC2C3CC[C@@H]4C[C@H](NCCN(C)C)CC[C@]4(C)C3CC[C@@]21C (stereo partly drawn) [MSI-2534] |  | 0% | 
COC(=O)CC[C@@H](C)[C@H]1CCC2C3CC[C@@H]4CC(NCCN(C)C)CC[C@]4(C)C3CC[C@@]21C (stereo partly drawn) [MSI-2535] |  | 8% | 
